Results as given in patent US20250144067A1, “PERSONALIZED STARVATION THERAPY FOR CANCER” (Faeth Therapeutics, Inc., priority 2021, published 2025).
Counter-ions that a name gives are not always drawn. Like-named read-outs stand apart in the source and are kept apart here.

How the values were obtained:
[1] = system: NCI-H292 lung cancer cells; experiment: FDA drug screening, complete media vs cholesterol-free media with simvastatin (TABLE 2); assay type: cell-based, human
[2] = system: NCI-H292 lung cancer cells; experiment: FDA drug screening, complete media vs cholesterol-free media without statin (TABLE 1); assay type: cell-based, human
[3] = NCI-H292 cells, cholesterol-free media with simvastatin 0.04 μM, cell growth value in FDA drug screen
[4] = NCI-H292 cells, complete media, cell growth value in FDA drug screen
[5] = complete media minus cholesterol-free media + simvastatin, >0 enhanced anti-cancer activity, about 0 neutral, <0 antagonist
[6] = NCI-H292 cells, cholesterol-free media without statin
[7] = complete vs cholesterol-free media, greater than 0 enhanced anti-cancer activity, about 0 neutral, below 0 antagonists
[8] = NCI-H292 cells, drug in cholesterol-free media with simvastatin 0.04 μM
[9] = NCI-H292 cells, drug in complete media
[10] = complete media vs cholesterol-free media + simvastatin (0.04 μM), >0 enhanced anti-cancer activity, about 0 neutral, <0 antagonist
[11] = Complete minus Cholesterol-free, >0 enhanced anti-cancer activity, about 0 neutral, <0 antagonist
[12] = NCI-H292 cells, cholesterol-free media without statin, FDA drug library screen
[13] = NCI-H292 cells, complete media, FDA drug library screen
[14] = NCI-H292 cells, FDA drug library screen, cholesterol-free media with simvastatin 0.04 μM
[15] = NCI-H292 cells, FDA drug library screen, complete media
[16] = complete vs cholesterol-free media, >0 enhanced anti-cancer activity, about 0 neutral, <0 antagonist
[17] = NCI-H292 cells, cholesterol-free media with simvastatin 0.04 μM, FDA drug library screen (TABLE 2)
[18] = NCI-H292 cells, complete media, FDA drug library screen (TABLE 2)
[19] = complete media minus cholesterol-free media + simvastatin (0.04 μM), >0 enhanced anti-cancer activity, about 0 neutral, <0 antagonist
[20] = Complete minus Cholesterol-free, greater than 0 enhanced anti-cancer activity, about 0 neutral, below 0 antagonists
[21] = NCI-H292 cells in cholesterol-free media without statin
[22] = NCI-H292 cells in complete media
[23] = NCI-H292 cells, FDA library drug in cholesterol-free media with simvastatin 0.04 μM
[24] = NCI-H292 cells, FDA library drug in complete media
[25] = Complete minus Cholesterol-free, greater than 0 enhanced anti-cancer activity, about 0 neutral, below 0 antagonist
[26] = NCI-H292 cells, FDA drug library screen, cholesterol-free media without statin
[27] = complete vs cholesterol-free media, […]
[28] = complete media vs cholesterol-free media + simvastatin (0.04 μM), […]

Compound: O=C1CC2(CCCC2)CC(=O)N1CCCCN1CCN(c2ncccn2)CC1 [Buspirone (hydrochloride)]
- Cholesterol-free media + simvastatin (0.04 μM) [1, 3]: 0.8828
- Complete Media [1, 4]: 0.9935
- Difference [1, 5]: 0.11
- Cholesterol-free [2, 6]: 1.286
- Complete ([2]; NCI-H292 cells, complete media): 0.8529
- Difference [2, 7]: −0.43

Compound: Brc1c(NC2=NCCN2)ccc2nccnc12 [Brimonidine]
- Cholesterol-free media + simvastatin (0.04 μM) [1, 8]: 0.9016
- Complete Media [1, 9]: 0.7279
- Difference [1, 10]: −0.17
- Difference [2, 11]: −0.01
- Cholesterol-free [2, 12]: 0.9724
- Complete [2, 13]: 0.9659

Compound: Oc1c(Br)cc(Br)c2cccnc12 [Broxyquinoline]
- Cholesterol-free media + simvastatin (0.04 μM) [1, 14]: 1.072
- Complete Media [1, 15]: 1.219
- Difference [1, 5]: 0.15
- Cholesterol-free [2, 12]: 1.044
- Complete [2, 13]: 1.24
- Difference [2, 16]: 0.20

Compound: Sildenafil (citrate)
- Cholesterol-free media + simvastatin (0.04 μM) [1, 17]: 0.9766
- Complete Media [1, 18]: 0.9106
- Difference [1, 19]: −0.07
- Difference [2, 20]: −0.63
- Cholesterol-free [2, 21]: 1.504
- Complete [2, 22]: 0.8696

Compound: COc1ccc(CN(CCN(C)C)c2ccccn2)cc1 [Mepyramine maleate]
- Cholesterol-free media + simvastatin (0.04 μM) [1, 23]: 1.226
- Complete Media [1, 24]: 0.8399
- Difference [1, 10]: −0.39
- Difference [2, 25]: −0.17
- Cholesterol-free [2, 26]: 1.527
- Complete [2, 15]: 1.356

Compound: CCc1ccc(CCOc2ccc(CC3SC(=O)NC3=O)cc2)nc1 (stereo not shown) [Pioglitazone (hydrochloride)]
- Cholesterol-free media + simvastatin (0.04 μM) [1, 8]: 1.247
- Complete Media [1, 9]: 1.002
- Difference [1, 10]: −0.25
- Difference [2, 11]: −0.30
- Cholesterol-free [2, 6]: 1.265
- Complete ([2]; NCI-H292 cells, complete media): 0.9669

Compound: C[C@H](O)C(=O)O [L-Lactic acid]
- Cholesterol-free media + simvastatin (0.04 μM) [1, 8]: 1.063
- Complete Media [1, 9]: 0.8704
- Difference [1, 10]: −0.19
- Cholesterol-free [2, 6]: 1.267
- Complete ([2]; NCI-H292 cells, complete media): 0.8145
- Difference [2, 7]: −0.45

Compound: Econazole (nitrate)
- Cholesterol-free media + simvastatin (0.04 μM) [1, 14]: 0.1971
- Difference [1, 5]: 0.88
- Difference [2, 25]: −0.13
- Cholesterol-free [2, 26]: 0.9667
- Complete [2, 15]: 0.8375

Compound: Hydrocortisone hemisuccinate
- Cholesterol-free media + simvastatin (0.04 μM) [1, 3]: 0.9423
- Complete Media [1, 4]: 1.019
- Difference [1, 5]: 0.08
- Difference [2, 20]: −0.57
- Complete [2, 22]: 0.5102

Compound: CCN(CC)CC#CCOC(=O)C(O)(c1ccccc1)C1CCCCC1 (stereo not shown) [Oxybutynin]
- Cholesterol-free media + simvastatin (0.04 μM) [1, 14]: 0.7436
- Complete Media [1, 15]: 1.133
- Difference [1, 5]: 0.39
- Difference [2, 25]: −0.10
- Cholesterol-free [2, 26]: 1.075
- Complete [2, 15]: 0.9761

Compound: Clemastine (fumarate)
- Cholesterol-free media + simvastatin (0.04 μM) [1, 3]: 0.8829
- Difference [1, 5]: 0.12
- Difference [2, 20]: −0.61
- Cholesterol-free [2, 21]: 1.716

Compound: Nc1ccc(S(=O)(=O)Nc2ncccn2)cc1 [Sulfadiazine (sodium)]
- Cholesterol-free media + simvastatin (0.04 μM) [1, 8]: 1.234
- Complete Media [1, 9]: 0.9756
- Difference [1, 10]: −0.26
- Difference [2, 25]: −0.12
- Cholesterol-free [2, 26]: 1.217
- Complete [2, 15]: 1.095

Compound: NC(=O)c1cccc2cn(-c3ccc([C@@H]4CCCNC4)cc3)nc12 [Niraparib (hydrochloride)]
- Cholesterol-free media + simvastatin (0.04 μM) [1, 3]: 0.7422
- Complete Media [1, 4]: 0.838
- Difference [1, 5]: 0.10
- Difference [2, 20]: −0.48
- Cholesterol-free [2, 21]: 1.435
- Complete [2, 22]: 0.9534

Compound: OCc1cc(C(O)CNCCCCCCOCCCCc2ccccc2)ccc1O (stereo not shown) [Salmeterol]
- Cholesterol-free media + simvastatin (0.04 μM) [1, 14]: 0.6428
- Complete Media [1, 15]: 0.8345
- Difference [1, 5]: 0.19
- Difference [2, 11]: −0.01
- Cholesterol-free [2, 12]: 0.865
- Complete [2, 13]: 0.8548

Compound: CC(N/C(=N\C#N)Nc1ccncc1)C(C)(C)C (stereo not shown) [Pinacidil monohydrate]
- Cholesterol-free media + simvastatin (0.04 μM) [1, 23]: 1.085
- Complete Media [1, 24]: 0.8064
- Difference [1, 10]: −0.28
- Difference [2, 11]: −0.26
- Cholesterol-free [2, 6]: 1.093
- Complete ([2]; NCI-H292 cells, complete media): 0.8337

Compound: Afatinib (dimaleate)
- Cholesterol-free media + simvastatin (0.04 μM) [1, 14]: 0.4722
- Complete Media [1, 15]: 0.3193
- Difference [1, 10]: −0.15
- Difference [2, 11]: 0.03
- Cholesterol-free [2, 12]: 0.07869
- Complete [2, 13]: 0.1056

Compound: C/C=C(/C)C(=O)O[C@H]1C(C)=C[C@]23C(=O)[C@@H](C=C(CO)[C@@H](O)[C@]12O)[C@H]1[C@@H](C[C@H]3C)C1(C)C [Ingenol Mebutate]
- Cholesterol-free media + simvastatin (0.04 μM) ([1]; NCI-H292 cells, cholesterol-free media with simvastatin 0.04 μM, […]): 0.2962
- Complete Media ([1]; NCI-H292 cells, complete media, […]): 0.4169
- Difference ([1]; complete media minus cholesterol-free media + simvastatin, […]): 0.12
- Cholesterol-free [2, 6]: 0.6991
- Complete ([2]; NCI-H292 cells, complete media): 0.3918
- Difference [2, 27]: −0.31

Compound: CCCC(CCC)C(=O)O [Valproic acid (sodium salt)]
- Cholesterol-free media + simvastatin (0.04 μM) [1, 8]: 0.961
- Complete Media [1, 9]: 0.7238
- Difference [1, 10]: −0.24
- Difference [2, 11]: −0.26
- Cholesterol-free [2, 6]: 0.9818
- Complete ([2]; NCI-H292 cells, complete media): 0.7267

Compound: COc1cc(C(=O)NS(=O)(=O)c2ccccc2C)ccc1Cc1cn(C)c2ccc(NC(=O)OC3CCCC3)cc12 [Zafirlukast]
- Cholesterol-free media + simvastatin (0.04 μM) [1, 14]: 1.598
- Complete Media [1, 15]: 1.505
- Difference [1, 10]: −0.09
- Difference [2, 11]: 0.05
- Cholesterol-free [2, 12]: 0.8473
- Complete [2, 13]: 0.9001

Compound: CCC[S+]([O-])c1ccc2[nH]c(NC(=O)OC)nc2c1 (stereo not shown) [Albendazole sulfoxide]
- Cholesterol-free media + simvastatin (0.04 μM) [1, 8]: 1.376
- Complete Media [1, 9]: 1.125
- Difference [1, 28]: −0.25
- Cholesterol-free [2, 6]: 1.467
- Complete ([2]; NCI-H292 cells, complete media): 1.005
- Difference [2, 27]: −0.46

Compound: CC(=O)O[C@H]1C[C@@]2(C)[C@@H](C[C@@H](O)[C@H]3[C@@]4(C)CC[C@@H](O)[C@@H](C)[C@@H]4CC[C@@]32C)/C1=C(\CCC=C(C)C)C(=O)O [Fusidic acid (sodium salt)]
- Cholesterol-free media + simvastatin (0.04 μM) [1, 17]: 0.9882
- Complete Media [1, 18]: 0.9484
- Difference [1, 19]: −0.04
- Cholesterol-free [2, 12]: 0.7301
- Complete [2, 13]: 1.107
- Difference [2, 16]: 0.38

Compound: COc1ccc(C[C@H](N)C(=O)N[C@H]2[C@@H](O)[C@H](n3cnc4c(N(C)C)ncnc43)O[C@@H]2CO)cc1 [Puromycin (dihydrochloride)]
- Cholesterol-free media + simvastatin (0.04 μM) [1, 17]: −0.002227
- Complete Media [1, 18]: −0.05066
- Difference [1, 19]: −0.05
- Difference [2, 11]: −0.02
- Cholesterol-free [2, 12]: 0.005958
- Complete [2, 13]: −0.01645

Compound: Atosiban (acetate)
- Cholesterol-free media + simvastatin (0.04 μM) [1, 23]: 1.587
- Difference [1, 28]: −0.52
- Cholesterol-free [2, 6]: 1.199
- Complete ([2]; NCI-H292 cells, complete media): 0.8162
- Difference [2, 27]: −0.38

Compound: CC(=O)[C@]1(O)Cc2c(O)c3c(c(O)c2[C@@H](O[C@H]2C[C@H](N)[C@H](O)[C@H](C)O2)C1)C(=O)c1ccccc1C3=O [Idarubicin (hydrochloride)]
- Cholesterol-free media + simvastatin (0.04 μM) [1, 17]: 0.008408
- Complete Media [1, 18]: 0.002721
- Difference [1, 19]: −0.01
- Difference [2, 11]: −0.01
- Cholesterol-free [2, 12]: −0.02296
- Complete [2, 13]: −0.02941

Compound: COc1c(N2CCNC(C)C2)c(F)cc2c(=O)c(C(=O)O)cn(C3CC3)c12 (stereo not shown) [Gatifloxacin (hydrochloride)]
- Cholesterol-free media + simvastatin (0.04 μM) [1, 14]: 0.9302
- Complete Media [1, 15]: 0.7736
- Difference [1, 10]: −0.16
- Difference [2, 25]: −0.09
- Cholesterol-free [2, 26]: 1.038
- Complete [2, 15]: 0.9512

Compound: CCC(=O)O[C@]1(C(=O)CCl)[C@@H](C)C[C@H]2[C@@H]3C[C@H](F)C4=CC(=O)C=C[C@]4(C)[C@@]3(F)[C@@H](O)C[C@@]21C [Halobetasol (propionate)]
- Cholesterol-free media + simvastatin (0.04 μM) [1, 17]: 0.5775
- Complete Media [1, 18]: 0.585
- Difference [1, 19]: 0.01
- Difference [2, 25]: −0.18
- Cholesterol-free [2, 26]: 0.7462
- Complete [2, 15]: 0.5641

Compound: CC[C@H](C)C(=O)N1CCC(NC(=O)Nc2ccc(OC(F)(F)F)c(F)c2)CC1 [EC5026]
- Cholesterol-free media + simvastatin (0.04 μM) [1, 14]: 1.241
- Complete Media [1, 15]: 1.143
- Difference [1, 28]: −0.10
- Cholesterol-free [2, 6]: 1.148
- Complete ([2]; NCI-H292 cells, complete media): 0.7425
- Difference [2, 27]: −0.41

Compound: C[C@H](Cc1cc2c(c(C(N)=O)c1)N(CCCO)CC2)NCCOc1ccccc1OCC(F)(F)F [Silodosin]
- Cholesterol-free media + simvastatin (0.04 μM) [1, 14]: 1.21
- Complete Media [1, 15]: 1.074
- Difference [1, 10]: −0.14
- Cholesterol-free [2, 6]: 1.295
- Complete ([2]; NCI-H292 cells, complete media): 0.8816
- Difference [2, 7]: −0.41

Compound: C[N+](C)(C)CCCCCCCCCC[N+](C)(C)C.[Br-].[Br-] [Decamethonium (Bromide)]
- Cholesterol-free media + simvastatin (0.04 μM) [1]: 1.129
- Complete Media [1]: 0.9457
- Difference [1]: −0.18
- Cholesterol-free [2]: 1.121
- Complete [2]: 0.9062
- Difference [2]: −0.21
